Source: patent publication US20190298796A1, “Therapeutic Compositions from the Brevinin-1 Family of Peptides and Uses Thereof” (priority 2016, published 2019)
Converted amounts (≈) assume the structure as drawn. Where two headings read alike, the source gives them in different places. Positions of bridges follow the written chain, without caps; N, C: chain ends. Residues, ends and D or L forms follow the SMILES beside them.

How the values were obtained:
[1] = test system: human erythrocytes; type: cell-based; details: 60 min
Description: Hemolytic Activity: Hemolytic assay was carried out as previously described. Briefly, 10% (v/v) suspensions of fresh human erythrocytes in phosphate buffered saline (pH 7.2) were incubated with different concentrations (100 μM-0.7 μM) of B1/1 COOH & B1/2 COOH, B1/1 CONH2 & B1/2 CONH2 and cyclic B1/1 CONH2 & cyclic B1/2 CONH2 and incubated at 3^7° C. for 60 min. The cells were centrifuged (3000×g) for 5 min, and absorbance of the supernatant was measured at 595 nm. Hemolysis caused by 10% Triton X-100 was taken as positive control. Percentage hemolysis was calculated by measuring the mean amount of hemoglobin released as a result of lysis of erythrocyte from three independent experiments.

[2] = test system: V. cholerae cells (MCV09); experiment: Atomic Force Microscopy of surface morphology; type: cell-based, Vibrio cholerae; details: MIC, 15 min
Description: Visualizing the changes in surface morphology of bacteria: Atomic Force Microscopy. This was incorporated to get more insights into the mechanism of action of the peptides and to confirm the results obtained from SEM. V. cholerae cells (MCV09) were grown in MHB at 37° C., washed, and suspended in sodium phosphate buffer (10 mM, pH: 7.4) (OD600-0.06). Diluted bacteria were incubated with the MICs of B1/1 CONH2 and B1/2 CONH2 for 15 min. The control sample was prepared without the peptides. Samples were prepared by drop casting 20 μL of a solution on the freshly cleaved mica surface and dried under air. AFM analyses were carried out on Multimode SPM (Veeco Nanoscope V). Imaging was done under ambient conditions in tapping mode. The probe used for imaging was antimony doped silicon cantilever with a resonant frequency of 300 kHz and a spring constant of 40 Nm^−1.

[3] = test system: Aeromonas sobria ATCC 43979; type: cell-based; details: Aeromonas sobria ATCC 43979 (fish pathogen); NA = not active up to the highest concentration tested
Description: (§2) Antimicrobial activity: Broth dilution method [39] was used to assess the antimicrobial activity of the peptides. Bacterial strains used for in vitro antibacterial assay were Staphylococcus aureus (MTCC 9542), Bacillus subtilis (MTCC 14416), Bacillus coagulans (ATCC 7050), Methicillin-resistant Staphylococcus aureus (MRSA) (ATCC 43300), Streptococcus mutans (MTCC 497), Streptococcus gordonii (MTCC 2695), Vibrio cholerae (MCV09), Escherichia coli (ATCC 25922), Vancomycin-resistant enterococcus (VRE) (ATCC 29212) and gram-negative fish pathogens Aeromonas hydrophila (ATCC 7966) and Aeromonas sobria (ATCC 43979). Bacterial cultures were grown in Muller Hinton broth (MHB) (Hi-media) by overnight incubation at 37° C. with constant shaking. Microbial cultures having 10^6 CFU/ml were made from OD600: 0.6 cultures. 400 μM stock solutions of peptides were prepared in autoclaved double distilled water and diluted in MHB to make concentrations ranging from 0.7 to 100 μM. Bacterial inoculum without peptide was used as the negative control.

[4] = test system: Streptococcus mutans MTCC 497; type: cell-based; details: NA = not active up to the highest concentration tested
Description: as §2

[5] = test system: V. cholerae (MCV09); experiment: SYTOX green uptake, confocal imaging of membrane permeation; type: cell-based, Vibrio cholerae; details: MIC concentration, 10 min, CLSM
Description: (§1) Imaging the bacterial membrane permeation by the amidated peptides. In order to find out the membrane damage by the peptides, if any, we used SYTOX green uptake assay. MIC concentrations of B1/1 CONH2 and B1/2 CONH2 were prepared in sodium phosphate buffer (10 mM, pH: 7.4). Overnight cultures of S. aureus (MTCC 9542) and V. cholerae (MCV09) were re-inoculated in fresh MHB to attain an OD600-0.6. The bacterial suspension was centrifuged (3000×g) for 5 min and the pellet was washed twice with the sodium phosphate buffer (10 mM, pH: 7.4). The pellet was resuspended in the same buffer to an OD600-0.06. Diluted culture was incubated with the peptides for 10 min at 37° C. 100 μl suspensions were poured on to poly-L-lysine coated glass slides and incubated at 37° c. for 30 minutes. The glass slides were washed twice in the same buffer to remove unattached cells. After washing 50 μl of DAPI (10 μg/ml) was smeared on the glass slide and incubated for 30 minutes at 37° C. The slides were washed twice with the buffer and SYTOX green (0.1 μM) was smeared and incubated for 15 minutes at room temperature, washed twice and dried. A drop of glycerol was placed on the slides, mounted with a cover slip and sealed. Controls were run in the presence of peptide solvents. The slides were subjected to confocal laser scanning microscopy (CLSM).

[6] = test system: MRSA ATCC 43300; type: cell-based, Methicillin-resistant Staphylococcus aureus; details: lowest concentration killing entire bacteria, 24 hrs
Description: as §2

[7] = test system: S. aureus (MTCC 9542); experiment: SYTOX green uptake, confocal imaging of membrane permeation; type: cell-based, Staphylococcus aureus; details: MIC concentration, 10 min, CLSM
Description: as §1

[8] = test system: Aeromonas hydrophilia ATCC 7966; type: cell-based, Aeromonas hydrophila; details: Aeromonas hydrophilia ATCC 7966 (fish pathogen); NA = not active up to the highest concentration tested
Description: as §2

[9] = test system: Streptococcus gordonii MTCC 2695; type: cell-based; details: NA = not active up to the highest concentration tested
Description: as §2

[10] = test system: Bacillus coagulans ATCC 7050; type: cell-based; details: lowest concentration killing entire bacteria, 24 hrs
Description: as §2

[11] = test system: VRE ATCC 29212; details: lowest concentration killing entire bacteria, 24 hrs
Description: as §2

[12] = test system: Staphylococcus aureus MTCC 9542; type: cell-based; details: lowest peptide concentration required to kill entire bacteria, 24 hrs, NA = not active up to the highest concentration tested
Description: as §2

[13] = test system: Vibrio cholerae MCV09; type: cell-based; details: NA = not active up to the highest concentration tested
Description: as §2

[14] = test system: E .coli. ATCC 25922; type: cell-based, Escherichia coli
Description: as §2

[15] = test system: Bacillus subtilis MTCC 14416; type: cell-based; details: lowest concentration killing entire bacteria, 24 hrs
Description: as §2

[16] = test system: gram-negative bacteria; experiment: MIC range over the tested gram-negative bacteria; type: cell-based
Description: as §2

[17] = at the peptide's MIC for Aeromonas sobria ATCC 43979 (MIC in parenthesis)
[18] = at the peptide's MIC for Staphylococcus aureus MTCC 9542 (MIC in parenthesis)
[19] = at the peptide's MIC for Vibrio cholerae MCV09 (MIC in parenthesis)

Row | Structure (SMILES) | Percentage hemolysis at MIC [1, 17] | Percentage hemolysis at MIC [1, 18] | Percentage hemolysis at MIC [1, 19] | Changes in surface morphology (AFM) [2] | MIC [3] | MIC [4] | SYTOX green fluorescence signal (membrane permeabilization) [5] | MIC [6] | SYTOX green fluorescence signal (membrane permeabilization) [7] | MIC [8] | MIC [9] | MIC [10] | MIC [11] | MIC [12] | MIC [13] | MIC [14] | MIC [15] | Activity against gram-negative bacteria (MIC range) [16]
1 | CC[C@H](C)[C@H](NC(=O)CNC(=O)[C@@H]1CCCN1C(=O)[C@H](Cc1ccccc1)NC(=O)[C@@H](N)Cc1ccccc1)C(=O)N[C@H](C(=O)N[C@@H](CCCCN)C(=O)N[C@H](C(=O)N[C@@H](C)C(=O)N[C@@H](CO)C(=O)N[C@@H](C)C(=O)N[C@H](C(=O)N[C@@H](CC(C)C)C(=O)N1CCC[C@H]1C(=O)N[C@H](C(=O)N[C@@H](C)C(=O)N[C@H](C(=O)N[C@@H](CS)C(=O)N[C@@H](C)C(=O)N[C@H](C(=O)N[C@H](C(=O)N[C@@H](CCCCN)C(=O)N[C@@H](CCCNC(=N)N)C(=O)N[C@@H](CS)C(N)=O)[C@@H](C)O)[C@@H](C)CC)[C@@H](C)CC)[C@@H](C)O)[C@@H](C)CC)C(C)C)[C@@H](C)CC [B1/1 CONH2] (H-FFPGIIKVASAILPTAICAITKRC-NH2; N-terminus assumed) | 25% | 10% | 20% | changes in surface morphology and aggregation | 12.5 µM (≈ 31.7 µg/mL) | 36 µM (≈ 91.2 µg/mL) | marked increase in fluorescence signal | 2.5 µM (≈ 6.33 µg/mL) | marked increase in fluorescence signal | 100 µM (≈ 253 µg/mL) | 19 µM (≈ 48.1 µg/mL) | 8.2 µM (≈ 20.8 µg/mL) | 25 µM (≈ 63.3 µg/mL) | 1.5 µM (≈ 3.8 µg/mL) | 10.3 µM (≈ 26.1 µg/mL) | 29 µM (≈ 73.5 µg/mL) | 36.3 µM (≈ 92 µg/mL) | –
2 | CC[C@H](C)[C@H](NC(=O)CNC(=O)[C@@H]1CCCN1C(=O)[C@H](Cc1ccccc1)NC(=O)[C@@H](N)Cc1ccccc1)C(=O)N[C@H](C(=O)N[C@@H](CCCCN)C(=O)N[C@H](C(=O)N[C@@H](C)C(=O)N[C@@H](CO)C(=O)N[C@@H](C)C(=O)N[C@H](C(=O)N[C@@H](CC(C)C)C(=O)N1CCC[C@H]1C(=O)N[C@H](C(=O)N[C@@H](C)C(=O)N[C@H](C(=O)N[C@@H](CS)C(=O)N[C@@H](C)C(=O)N[C@H](C(=O)N[C@H](C(=O)N[C@@H](CCCCN)C(=O)N[C@@H](CCCNC(=N)N)C(=O)N[C@@H](CS)C(=O)O)[C@@H](C)O)[C@@H](C)CC)[C@@H](C)CC)[C@@H](C)O)[C@@H](C)CC)C(C)C)[C@@H](C)CC [B1/1 COOH] (H-FFPGIIKVASAILPTAICAITKRC-OH; N-terminus assumed) | – | 20% | – | – | – | – | – | 25 µM (≈ 63.4 µg/mL) | – | – | – | 25 µM (≈ 63.4 µg/mL) | 50 µM (≈ 127 µg/mL) | 9.5 µM (≈ 24.1 µg/mL) | – | – | 98 µM (≈ 248 µg/mL) | not with gram-negative bacteria
3 | CC[C@H](C)[C@H](NC(=O)CNC(=O)[C@@H]1CCCN1C(=O)[C@H](Cc1ccccc1)NC(=O)[C@@H](N)Cc1ccccc1)C(=O)N[C@H](C(=O)N[C@@H](CCCCN)C(=O)N[C@H](C(=O)N[C@@H](C)C(=O)NCC(=O)N[C@@H](C)C(=O)N[C@H](C(=O)N[C@@H](CC(C)C)C(=O)N1CCC[C@H]1C(=O)N[C@H](C(=O)N[C@@H](C)C(=O)N[C@H](C(=O)N[C@@H](CS)C(=O)N[C@@H](C)C(=O)N[C@H](C(=O)N[C@H](C(=O)N[C@@H](CCCCN)C(=O)N[C@@H](CCCNC(=N)N)C(=O)N[C@@H](CS)C(N)=O)[C@@H](C)O)[C@@H](C)CC)[C@@H](C)CC)[C@@H](C)O)[C@@H](C)CC)C(C)C)[C@@H](C)CC [B1/2 CONH2] (H-FFPGIIKVAGAILPTAICAITKRC-NH2; N-terminus assumed) | 25% | 8% | 25% | changes in surface morphology and aggregation | 12.5 µM (≈ 31.3 µg/mL) | 40 µM (≈ 100 µg/mL) | marked increase in fluorescence signal | 5 µM (≈ 12.5 µg/mL) | marked increase in fluorescence signal | 100 µM (≈ 250 µg/mL) | 25 µM (≈ 62.6 µg/mL) | 12.5 µM (≈ 31.3 µg/mL) | 25 µM (≈ 62.6 µg/mL) | 2.5 µM (≈ 6.26 µg/mL) | 12 µM (≈ 30 µg/mL) | 36.2 µM (≈ 90.6 µg/mL) | 30 µM (≈ 75.1 µg/mL) | –
4 | CC[C@H](C)[C@H](NC(=O)CNC(=O)[C@@H]1CCCN1C(=O)[C@H](Cc1ccccc1)NC(=O)[C@@H](N)Cc1ccccc1)C(=O)N[C@H](C(=O)N[C@@H](CCCCN)C(=O)N[C@H](C(=O)N[C@@H](C)C(=O)N[C@@H](CO)C(=O)N[C@@H](C)C(=O)N[C@H](C(=O)N[C@@H](CC(C)C)C(=O)N1CCC[C@H]1C(=O)N[C@H](C(=O)N[C@@H](C)C(=O)N[C@H](C(=O)N[C@H]1CSSC[C@@H](C(N)=O)NC(=O)[C@H](CCCNC(=N)N)NC(=O)[C@H](CCCCN)NC(=O)[C@H]([C@@H](C)O)NC(=O)[C@H]([C@@H](C)CC)NC(=O)[C@H](C)NC1=O)[C@@H](C)CC)[C@@H](C)O)[C@@H](C)CC)C(C)C)[C@@H](C)CC [Cyclic B1/1 CONH2] (H-FFPGIIKVASAILPTAICAITKRC-NH2; disulfide 18-24; N-terminus assumed) | 10% | 11% | 20% | – | 3 µM (≈ 7.59 µg/mL) | 40 µM (≈ 101 µg/mL) | – | 5 µM (≈ 12.7 µg/mL) | – | 100 µM (≈ 253 µg/mL) | 25 µM (≈ 63.3 µg/mL) | 25 µM (≈ 63.3 µg/mL) | 25 µM (≈ 63.3 µg/mL) | 3 µM (≈ 7.59 µg/mL) | 12.5 µM (≈ 31.6 µg/mL) | 50 µM (≈ 127 µg/mL) | 45 µM (≈ 114 µg/mL) | –
5 | CC[C@H](C)[C@H](NC(=O)CNC(=O)[C@@H]1CCCN1C(=O)[C@H](Cc1ccccc1)NC(=O)[C@@H](N)Cc1ccccc1)C(=O)N[C@H](C(=O)N[C@@H](CCCCN)C(=O)N[C@H](C(=O)N[C@@H](C)C(=O)NCC(=O)N[C@@H](C)C(=O)N[C@H](C(=O)N[C@@H](CC(C)C)C(=O)N1CCC[C@H]1C(=O)N[C@H](C(=O)N[C@@H](C)C(=O)N[C@H](C(=O)N[C@H]1CSSC[C@@H](C(N)=O)NC(=O)[C@H](CCCNC(=N)N)NC(=O)[C@H](CCCCN)NC(=O)[C@H]([C@@H](C)O)NC(=O)[C@H]([C@@H](C)CC)NC(=O)[C@H](C)NC1=O)[C@@H](C)CC)[C@@H](C)O)[C@@H](C)CC)C(C)C)[C@@H](C)CC [Cyclic B1/2 CONH2] (H-FFPGIIKVAGAILPTAICAITKRC-NH2; disulfide 18-24; N-terminus assumed) | 12% | 15% | 25% | – | 3 µM (≈ 7.5 µg/mL) | 40 µM (≈ 100 µg/mL) | – | 7 µM (≈ 17.5 µg/mL) | – | 50 µM (≈ 125 µg/mL) | 25 µM (≈ 62.5 µg/mL) | 29 µM (≈ 72.5 µg/mL) | 30 µM (≈ 75 µg/mL) | 3 µM (≈ 7.5 µg/mL) | 12.5 µM (≈ 31.3 µg/mL) | 50 µM (≈ 125 µg/mL) | 35 µM (≈ 87.5 µg/mL) | –
